Measured values from patent publication US8883745B2, “C—glycolipids with enhanced Th-1 profile” (New York University, priority 2006, dated 2014).

What was measured:
Format in all cases: in vivo
IL-12 = IL-12 levels in sera upon i.v. glycolipid administration to BALB/c mice (ELISA); parameters: IL-12 levels, test 1 / IL-12 levels, test 2 / IL-12 levels, average / IL-12 levels, Total: unit not given here
Procedure: (§1) Five- to six-week-old female C57BL/6 mice and BALB/c mice were purchased from Taconic. Each glycolipid was stored at 1 mg/ml in 100% DMSO. Mice were injected intravenously with 1 μg of each glyocolipid diluted in 200 μL sterile phosphate buffered saline (PBS). At indicated time points, sera were collected from each animal, and concentrations of IFN-γ, IL-4, and IL-12 in the sera were evaluated by enzyme-linked immunosorbent assay (ELISA). Serum concentrations of IFN-γ, IL-4, and IL-12 were evaluated using an ELISA kit (eBioscience, San Diego, Calif.). Briefly, 96 well flat-bottom ELISA plates (NUNC) were coated with capture antibody according to the manufacture's recommendation and incubated overnight at 4° C. The plates were washed with PBS+0.05% Tween 20 (PBS-T), then incubated with manufacturer provided blocking solution for 1 hr at room temperature to block non-specific binding sites. After washing with PBS-T, sera diluted 1:10 was added to the wells and incubated for 2 hrs at room temperature. Plates were then incubated at room temperature for 1 hr with biotintylated detection antibody, washed, incubated with avidin conjugated to horse radish peroxidase (HRP) for 30 min at room temperature, washed, and finally incubated with tetramethylbenzidine substrate solution in the dark for 10 minutes at room temperature. The antibodies, avidin-HRP, and substrate solution were all diluted according to the manufacture's recommendation. Reactions were stopped with 2.0N sulfuric acid and the cytokine concentration in each well was determined by comparing the absorbance at 450 nm in each well to known standards. The levels of Th1- and Th2-type cytokines were determined in two different genetic backgrounds, i.e., in C57BL/6 mice and BALB/c mice. The following compounds were administered: A=compound (A-1 trans-conformer), B=compound (A-2), C=compound (A-3), D=compound (A-4), E=compound (A-5), Z=control (PBS alone), CRONY=α-C-GalCer, KRN=α-GalCer, GCK109 (A-1 trans-conformer), GCK151 (A-1 cis-conformer), GCK152 (A-7). The levels of cytokines were measured at 0, 2, 6, 12, 24, 48, and 72 hours after the compound administration. The levels of Th1-type cytokines IFN-γ and IL-12 are summarized in FIGS. 2A-C and 3A-C, respectively. Table 7 provides IFN-γ/IL-4 and IL-12/IL-4 ratios for various compounds, which can be used as indicators of their ability to selectively stimulate Th1-type immune responses.

IFN-γ [1] = test: IFN-γ levels in sera upon i.v. glycolipid administration to C57BL/6 mice (ELISA); parameters: IFN-γ levels, test 1 / IFN-γ levels, test 2 / IFN-γ levels, average / IFN-γ levels, Total / IFN-γ (B6): unit not given here
Procedure: as §1

IL-4 = IL-4 levels in sera upon i.v. glycolipid administration to BALB/c mice (ELISA); parameters: unit not given here
Procedure: as §1

IFN-γ [2] = test: IFN-γ levels in sera upon i.v. glycolipid administration to BALB/c mice (ELISA); parameters: IFN-γ levels, test 1 / IFN-γ levels, test 2 / IFN-γ levels, average / IFN-γ levels, Total: unit not given here; settings: BALB/c
Procedure: as §1

[3] = ratio calculated from Tables 1-6

CCCCCCCCCCCCCCCCCCCCCCCCCC(=O)N[C@@H](CC[C@H]1O[C@H](CO)[C@H](O)[C@H](O)[C@H]1O)[C@H](O)[C@H](O)CCCCCCCCCCCCCC [CRONY, reference compound]
IL-12/IL-4 (BALB/c) (IL-12; [3]): 7 | IL-12 levels, average (IL-12; serum, hour 0): 5 | IL-12 levels, test 1 (IL-12; serum, hour 0): 5 | IL-12 levels, test 2 (IL-12; serum, hour 0): 5 | IL-12 levels, average (IL-12; serum, hour 2): 66 | IL-12 levels, test 1 (IL-12; serum, hour 2): 7 | IL-12 levels, test 2 (IL-12; serum, hour 2): 125 | IL-12 levels, average (IL-12; serum, hour 6): 1525 | IL-12 levels, test 1 (IL-12; serum, hour 6): 1556 | IL-12 levels, test 2 (IL-12; serum, hour 6): 1494 | IL-12 levels, average (IL-12; serum, hour 12): 1888.5 | IL-12 levels, test 1 (IL-12; serum, hour 12): 1717 | IL-12 levels, test 2 (IL-12; serum, hour 12): 2060 | IL-12 levels, average (IL-12; serum, hour 24): 210 | IL-12 levels, test 1 (IL-12; serum, hour 24): 338 | IL-12 levels, test 2 (IL-12; serum, hour 24): 82 | IL-12 levels, average (IL-12; serum, hour 48): 238 | IL-12 levels, test 1 (IL-12; serum, hour 48): 328 | IL-12 levels, test 2 (IL-12; serum, hour 48): 148 | IL-12 levels, average (IL-12; serum, hour 72): 91.5 | IL-12 levels, test 1 (IL-12; serum, hour 72): 9 | IL-12 levels, test 2 (IL-12; serum, hour 72): 174 | IL-12 levels, Total (IL-12; serum, total over hours 0-72): 4025 | IFN-γ/IL-4 (B6) (IFN-γ [1]; C57BL/6, ratio calculated from Tables 1-6): 17 | IFN-γ levels, average (IFN-γ [1]; C57BL/6, serum, hour 0): 31 | IFN-γ levels, test 1 (IFN-γ [1]; C57BL/6, serum, hour 0): 31 | IFN-γ levels, test 2 (IFN-γ [1]; C57BL/6, serum, hour 0): 31 | IFN-γ levels, average (IFN-γ [1]; C57BL/6, serum, hour 2): 355.5 | IFN-γ levels, test 1 (IFN-γ [1]; C57BL/6, serum, hour 2): 359 | IFN-γ levels, test 2 (IFN-γ [1]; C57BL/6, serum, hour 2): 352 | IFN-γ levels, average (IFN-γ [1]; C57BL/6, serum, hour 6): 1094.5 | IFN-γ levels, test 1 (IFN-γ [1]; C57BL/6, serum, hour 6): 1083 | IFN-γ levels, test 2 (IFN-γ [1]; C57BL/6, serum, hour 6): 1106 | IFN-γ levels, average (IFN-γ [1]; C57BL/6, serum, hour 12): 2512.5 | IFN-γ levels, test 1 (IFN-γ [1]; C57BL/6, serum, hour 12): 2667 | IFN-γ levels, test 2 (IFN-γ [1]; C57BL/6, serum, hour 12): 2358 | IFN-γ levels, average (IFN-γ [1]; C57BL/6, serum, hour 24): 6589.5 | IFN-γ levels, test 1 (IFN-γ [1]; C57BL/6, serum, hour 24): 6511 | IFN-γ levels, test 2 (IFN-γ [1]; C57BL/6, serum, hour 24): 6668 | IFN-γ levels, average (IFN-γ [1]; C57BL/6, serum, hour 48): 777.5 | IFN-γ levels, test 1 (IFN-γ [1]; C57BL/6, serum, hour 48): 798 | IFN-γ levels, test 2 (IFN-γ [1]; C57BL/6, serum, hour 48): 757 | IFN-γ levels, average (IFN-γ [1]; C57BL/6, serum, hour 72): 290 | IFN-γ levels, test 1 (IFN-γ [1]; C57BL/6, serum, hour 72): 279 | IFN-γ levels, test 2 (IFN-γ [1]; C57BL/6, serum, hour 72): 301 | IFN-γ levels, Total (IFN-γ [1]; C57BL/6, serum, total over hours 0-72): 11653 | IFN-γ (B6) (IFN-γ [1]; C57BL/6, total from Table 2): 11652 | IL-4 level, average (IL-4; hour 0): 27 | IL-4 level, test 1 (IL-4; hour 0): 27 | IL-4 level, test 2 (IL-4; hour 0): 27 | IL-4 level, average (IL-4; hour 2): 262.5 | IL-4 level, test 1 (IL-4; hour 2): 264 | IL-4 level, test 2 (IL-4; hour 2): 261 | IL-4 level, average (IL-4; hour 6): 87 | IL-4 level, test 1 (IL-4; hour 6): 80 | IL-4 level, test 2 (IL-4; hour 6): 94 | IL-4 level, average (IL-4; hour 12): 49 | IL-4 level, test 1 (IL-4; hour 12): 45 | IL-4 level, test 2 (IL-4; hour 12): 53 | IL-4 level, average (IL-4; hour 24): 47.5 | IL-4 level, test 1 (IL-4; hour 24): 49 | IL-4 level, test 2 (IL-4; hour 24): 46 | IL-4 level, average (IL-4; hour 48): 46.5 | IL-4 level, test 1 (IL-4; hour 48): 45 | IL-4 level, test 2 (IL-4; hour 48): 48 | IL-4 level, average (IL-4; hour 72): 67 | IL-4 level, test 1 (IL-4; hour 72): 67 | IL-4 level, test 2 (IL-4; hour 72): 67 | IL-4 level, Total (IL-4; total over hours 0-72): 588 | IFN-γ/IL-4 (BALB/c) (IFN-γ [2]; [3]): 34 | IFN-γ levels, average (IFN-γ [2]; serum, hour 0): 27 | IFN-γ levels, test 1 (IFN-γ [2]; serum, hour 0): 27 | IFN-γ levels, test 2 (IFN-γ [2]; serum, hour 0): 27 | IFN-γ levels, average (IFN-γ [2]; serum, hour 2): 150 | IFN-γ levels, test 1 (IFN-γ [2]; serum, hour 2): 122 | IFN-γ levels, test 2 (IFN-γ [2]; serum, hour 2): 178 | IFN-γ levels, average (IFN-γ [2]; serum, hour 6): 3075.5 | IFN-γ levels, test 1 (IFN-γ [2]; serum, hour 6): 3114 | IFN-γ levels, test 2 (IFN-γ [2]; serum, hour 6): 3037 | IFN-γ levels, average (IFN-γ [2]; serum, hour 12): 5611 | IFN-γ levels, test 1 (IFN-γ [2]; serum, hour 12): 6314 | IFN-γ levels, test 2 (IFN-γ [2]; serum, hour 12): 4908 | IFN-γ levels, average (IFN-γ [2]; serum, hour 24): 10680 | IFN-γ levels, test 1 (IFN-γ [2]; serum, hour 24): 11900 | IFN-γ levels, test 2 (IFN-γ [2]; serum, hour 24): 9460 | IFN-γ levels, average (IFN-γ [2]; serum, hour 48): 334 | IFN-γ levels, test 1 (IFN-γ [2]; serum, hour 48): 320 | IFN-γ levels, test 2 (IFN-γ [2]; serum, hour 48): 348 | IFN-γ levels, average (IFN-γ [2]; serum, hour 72): 59.5 | IFN-γ levels, test 1 (IFN-γ [2]; serum, hour 72): 50 | IFN-γ levels, test 2 (IFN-γ [2]; serum, hour 72): 69 | IFN-γ levels, Total (IFN-γ [2]; serum, total over hours 0-72): 19938
